In US20150164916A1, “ROFLUMILAST COMPOSITIONS FOR THE TREATMENT OF COPD” (Forest Laboratories Holdings Ltd., priority 2012, published 2015):

Columns and labels:
Format in all cases: cell-based, human
MMP-9 release = test: LPS- or CSE-induced MMP-9 release in isolated peripheral blood neutrophils (LUMINEX); details: 6 h
Method: Neutrophils and monocytes were isolated from peripheral venous blood by standard laboratory procedures. In brief, peripheral venous blood was mixed with dextran 500 at 3% (in 0.9% saline) in a proportion of 2:1. This mixture was incubated at room temperature for 30 min until erythrocytes were sedimented. The upper phase was carefully collected and added on Ficoll-Paque Histopaque 1077 (Amershan Pharmacia Biotech, Barcelona, Spain) density gradient in a proportion of 3:1. The two phases generated were centrifuged at 150 g, 4° C. for 30 min. Thus, the interface was collected to isolate monocytes, and the pellet obtained (which is consisted a mixture of neutrophils and low proportion of residual erythrocytes and traces of eosinophils and basophils) was resuspended in an erythrocyte lysis buffer (Biolegend, UK) for 5 min in ice. Cell suspension was washed two times with phosphate buffer (PBS).
CSE was prepared as previously outlined (Milara et al.; Ortiz et al.). Briefly, the smoke of a research cigarette (2R4F; Tobacco Health Research, University of Kentucky, KY, USA) was generated by a respiratory pump (Apparatus Rodent Respirator 680; Harvard, Germany) through a puffing mechanism related to the human smoking pattern (3 puff/min; 1 puff 35 ml; each puff of 2 s duration with 0.5 cm above the filter) and was bubbled into a flask containing 25 ml of pre-warmed (37° C.) RPMI 1640 culture medium supplemented as describe above. The CSE solution was sterilized by filtration through a 0.22-μm cellulose acetate sterilizing system (Corning, N.Y.). The resultant CSE solution was considered to be 100% CSE and was used for experiments within 30 min of preparation. CSE 10% corresponds approximately to the exposure associated with smoking two packs per day (Su et al., 1998). The quality of the prepared CSE solution was assessed based on the absorbance at 320 nm, which is the specific absorption wavelength of peroxynitrite. Stock solutions with an absorbance value of 3.0±0.1 were used. To test for cytotoxicity from CSE, isolated neutrophils and monocytes were treated with CSE concentrations of up to 5% for 24.
Peripheral neutrophil cell suspension was adjusted to 500×10^3 cells per well in 24-well plates and incubated in RPMI culture medium for 1 h into the incubator at 37° C., 5% CO2. […] Both the stimulus and drug were remained together for 6 h. Supernatants were collected and centrifuged at 120 g for 5 min, and the free-cell supernatant was used to measure IL-8, MMP-9, IL-1β, GM-CSF and CCL-5.
IL-8 was determined by using commercially available enzyme-linked immunosorbent assay kit for IL-8 (R&D Systems, UK) according to the manufacturer's protocol. MMP-9, IL-1β, GM-CSF and CCL-5 were measured by LUMINEX technology according to the manufacturer's protocol.
Data were presented as mean±SEM. IC50 values were calculated for each drug and their combinations. Statistical analysis of results was carried out by analysis of variance (ANOVA) followed by Bonferroni test, by Student's t test, or by non-parametric tests as appropriate (GraphPad Software Inc, San Diego, Calif., USA). Significance was accepted when P<0.05. For clinical correlations of lung function and gene expression from neutrophils the non-parametric Spearman correlation analysis was carried out.

MKP1 = test: Real time RT-PCR of MKP1 mRNA in CSE-stimulated neutrophils from COPD patients; details: RNO 1 nM and 1 μM, DEX 1 μM, RNO 1 nM plus DEX 1 μM, NAC 1 mM for 1 h, then CSE 5% 6 h
Method: (§1) Neutrophils and monocytes were isolated from peripheral venous blood by standard laboratory procedures. In brief, peripheral venous blood was mixed with dextran 500 at 3% (in 0.9% saline) in a proportion of 2:1. This mixture was incubated at room temperature for 30 min until erythrocytes were sedimented. The upper phase was carefully collected and added on Ficoll-Paque Histopaque 1077 (Amershan Pharmacia Biotech, Barcelona, Spain) density gradient in a proportion of 3:1. The two phases generated were centrifuged at 150 g, 4° C. for 30 min. […]
(§2) CSE was prepared as previously outlined (Milara et al.; Ortiz et al.). […] The quality of the prepared CSE solution was assessed based on the absorbance at 320 nm, which is the specific absorption wavelength of peroxynitrite. Stock solutions with an absorbance value of 3.0±0.1 were used. […]
(§3) Total RNA was obtained from isolated neutrophils under basal conditions or after different drug and stimulation periods defined above by using TriPure® Isolation Reagent (Roche, Indianapolis, USA). […] Relative quantification of these transcripts was determined with the 2^−ΔΔCt method using glyceraldehyde phosphate dehydrogenase (GAPDH) as endogenous control (Applied Biosystems; 4352339E) and normalized to control group as previously described (Milara et al., 2009).
(§4) Then, mRNA was isolated and quantified for different genes.

p-ERK1/2 = test: Western blot of ERK1/2 phosphorylation in CSE-stimulated neutrophils from COPD patients; details: RNO 1 nM and 1 μM, DEX 1 μM, RNO 1 nM plus DEX 1 μM, NAC 1 mM for 1 h, then CSE 5% 20 min
Method: as §1, §2
Western blot analysis was used to detect changes in p-ERK1/2 (42-44 kD). […] Cells were then centrifuged and the total protein was extracted using a lysis buffer consisting of a complete inhibitor cocktail plus 1 mM ethylenediaminetetraacectic acid (Roche Diagnostics Ltd, West Sussex, UK) with 20 mM Tris base, 0.9% NaCl, 0.1% Triton X-100, 1 mM dithiothreitol and 1 μg mL^−1 pepstatin A. The Bio-Rad assay (Bio-Rad Laboratories Ltd., Herts, UK) was used (following manufacturer's instructions) to quantify the level of protein in each sample to ensure equal protein loading. […]

HDAC2 = test: Real time RT-PCR of HDAC2 expression in CSE-stimulated neutrophils from COPD patients; details: RNO 1 nM and 1 μM, DEX 1 μM, RNO 1 nM plus DEX 1 μM, NAC 1 mM, CSE 5%
Method: as §1, §2, §3, §4

[1] = CSE 5%, neutrophils from COPD patients
[2] = CSE 5%, neutrophils from HEALTHY
[3] = LPS (1 μg/ml), neutrophils from COPD patients
[4] = LPS (1 μg/ml), neutrophils from HEALTHY

O=C(Nc1c(Cl)c[n+]([O-])cc1Cl)c1ccc(OC(F)F)c(OCC2CC2)c1 [RNO, roflumilast N-oxide]
-log IC50, inhibition of MMP-9 release (MMP-9 release; [1]): 8.76 ± 0.11 | Maximal % Inhibition of MMP-9 release (MMP-9 release; [1]): 62.58 ± 2.28% | -log IC50, inhibition of MMP-9 release (MMP-9 release; [2]): 8.87 ± 5.6 | Maximal % Inhibition of MMP-9 release (MMP-9 release; [2]): 64.8 ± 5.64% | -log IC50, inhibition of MMP-9 release (MMP-9 release; [3]): 7.64 ± 0.23 | Maximal % Inhibition of MMP-9 release (MMP-9 release; [3]): 94.61 ± 11.82% | -log IC50, inhibition of MMP-9 release (MMP-9 release; [4]): 7.66 ± 0.22 | Maximal % Inhibition of MMP-9 release (MMP-9 release; [4]): 98.9 ± 12.6% | effect on CSE-induced down-regulation of MKP1 mRNA expression (MKP1): reversed the effect of CSE | effect on CSE-induced phosphorylation of ERK1/2 (p-ERK1/2): effectively inhibited | effect on CSE-induced HDAC2 downregulation (HDAC2): inhibited
